Measurements reported in US11883430B2, “CD38-NAD+ regulated metabolic axis in anti-tumor immunotherapy” (MUSC FOUNDATION FOR RESEARCH DEVELOPMENT, priority 2016, dated 2024).

Assays:
Foxo1 = test: Confocal imaging of Foxo1 localization in Th17 and Th1/17 cells; type: cell-based, mouse; conditions: Th17 and Th1/17 cells programmed with SC-79 0.5 μg/ml (FIG. 13H)
B16-F10 melanoma = test: Adoptive T cell transfer, s.c. B16-F10 melanoma in C57BL/6 mice, tumor growth; type: in vivo, mouse; conditions: TRP-1 Th1/17 differentiated with DON 3 μM vs DMSO, 0.5×10^6 cells (FIG. 3P)
Protocol: Adoptive T cell protocol: B16-F10 or B16-F10-A2^+ mouse melanoma tumor cells (2.5×10^6) were injected subcutaneously (s.c.) into left flank of 8-10 weeks old C57BL/6 or HLA-A2^+ (or HLA-A2^+-RAG^−/−) mice respectively. After 9 days of tumor establishment, recipient mice were injected (i.p) with cyclophosphamide (4 mg/mice) before adoptively transferring (i.v) either h3T (CD4^+Vβ12^+) or TRP-1 (CD4^+Vβ14^+) Th1, Th17, Th1/17 cells on day 10. Similarly, Pmel (CD8^+Vβ13^+) and TCR-I (CD8^+Sv40 antigen specific) Tc1, Tc17 and Tc1/17 cells were adoptively transferred (i.v) into either 9 days established B16-F10 tumor bearing mice or TRAMP (spontaneously develop prostate tumor) respectively. For in vivo neutralization of IFNγ and IL17, neutralizing antibody to IFNγ and IL17 or matched isotype antibody was injected (100 μg/mouse; i.p.) in tumor bearing mice following adoptive transfer of T cells. In some experiments, tumor bearing mice received anti-CD38 antibody (50 μg/mouse; i.p.) after adoptive TRP-1 Th0 cells transfer. Recipient mice were given IL2 (50,000 U/mouse; i.p) for 3 consecutive days after ACT.

Th1/17 cells [1] = test: Viable cells by FACS live/dead dye staining; type: cell-based, mouse; conditions: cultured in presence of DON 3 μM; compared to Th1 or Th17 cell (FIG. 11H)
Protocol: FIGS. 11A-11L: Metabolic commitment of Th1, Th17 and Th1/17 cells (see FIGS. 3-4). (A-C) In vitro differentiated murine Th1, Th17 and Th1/17 cells were used for determining: (A) intracellular expression of various glycolytic enzymes, (B) cell surface expression of different amino acid transporters, and (C) intracellular expression of glutaminolytic enzymes by flow cytometry. Data are representative of three independent experiments with similar results. (D) Western blot analysis determined the protein level of various glutamine transporters and glutaminolytic enzymes in in vitro differentiated Th1, Th17 and Th1/17 cells. β-actin was used as a loading control. Data are representative of two independent experiments with similar results. (E-F) Purified CD4^+ T cells were differentiated to Th1, Th17 and Th1/17 cells either in presence or absence of 2DG (1 mM) or DON (3 μM) and characterized for: (E) intracellular cytokine secretion after restimulating them with PMA and ionomycin for 4 hr, (F) determining the frequency of cells that were IFNγ^+, IL17^+ or IFNγ^+IL17^+ in each treatment groups and presented using scatter plot. Statistical comparison between treated and untreated groups are indicated. […] (I) Purified CD4^+ T cells were differentiated into Th1, Th17 and Th1/17 cells and intracellular metabolites were measured using mass spectrometry. […]

NAD+ = test: Intracellular NAD+ level; type: cell-based, mouse; conditions: Th1/17 differentiated with 2DG 1 mM, DON 3 μM or FK866 10 nM (FIGS. 11K, 11L)
Protocol: NAD^+, Sirt1 activity and Foxo1 activity assay: Intracellular NAD^+ level in T cells were measured spectrophotometrically following the manufacturer's protocol (Cayman chemical, Ann Arbor, MI). Using equal amounts of nuclear protein extracted by NE-PER Nuclear and Cytoplasmic Extraction Reagents (Thermo Fisher Scientific, Waltham, MA), Sirt1 activity (Universal Sirt1 Activity Assay Kit, Abcam, Cambridge, MA) and Foxo1 activity (FKHR transcription Factor Assay Kit, Active Motif, Carlsbad, CA) were determined as per manufacturer's protocol.

Th1/17 cells [2] = test: Intracellular cytokine (IFNγ, IL17) flow cytometry after PMA and ionomycin; type: cell-based, mouse
Text: T cell differentiation: Naïve CD4^+ T cells were purified from the total splenocytes of 6-9 weeks old WT (C57BL/6) and KO (Foxo1^fl/flLck^cre, Sirt1^fl/flCD4^cre, CD38KO) mice using CD4^+ T cell isolation kit (Miltenyi Biotec) according to manufacturer's protocol. Total splenocytes from 6-9 weeks old TCR transgenic mouse TRP-1 (bears class-II restricted CD4^+ T cells) or Pmel (bears class-I restricted CD8^+ T cells) or TCR-I (bears class-I restricted CD8^+ T cells) were also used. Within experiments mice were age and sex matched. Purified naïve CD4^+ T cells or total splenocytes were differentiated to Th1 or Tc1 (10 ng/ml IL12, 50 U/ml IL2 and 10 μg/ml anti-IL4), Th17 or Tc17 (3 ng/ml TGFβ, 25 ng/ml IL6, 10 μg/ml anti-IL4 and 10 μg/ml anti-IFNγ), Th1/17 or Tc1/17 (20 ng/ml IL1β, 25 ng/ml IL6, 10 ng/ml IL12, 20 ng/ml IL23, 400 pg/ml TGFβ, 10 μg/ml anti-IL4, 5 μg/ml anti-IFNγ), iTreg (5 ng/ml TGFβ, 100 IU/ml IL2, 10 μg/ml anti-IL4 and 10 μg/ml anti-IFNγ or Th0 (50 IU/ml IL2) in presence of plate bound anti-CD3 (5 μg/ml) and anti-CD28 (5 μg/ml). For TRP-1, gp100 or Sv40 specific generation of different Th or Tc subsets, total splenocytes from either TRP-1, Pmel or TCR-I TCR transgenic mice were stimulated with 1 μg/ml respective peptides in presence of above-mentioned polarizing conditions. T cells were differentiated for three days in IMDM media supplemented with 10% FCS, 4 mM L-glutamine, 100 U/ml penicillin, 100 μg/ml streptomycin, 55 μM beta-mercaptoethanol under 7% CO2, atmospheric oxygen at 37° C. in a humidified incubator. For evaluation of intracellular cytokines by flow cytometry, T cells were re-stimulated with PMA (500 ng/ml) and Ionomycin (500 ng/ml) for 4 hr in presence of Glogi inhibitors. […]
Flow cytometry: Staining for cell surface markers was performed by incubating cells with antibody at 1:200 dilutions in FACS buffer (0.1% BSA in PBS) for 30 min at 4° C. […] Samples were acquired on LSRFortessa and analysed with FlowJo software (Tree Star, OR).

Th1/17 cells [3] = test: Glutamine uptake assay (radiolabelled glutamine); type: cell-based, mouse; conditions: DON pre-treatment, different conc. (FIG. 3O)
Protocol: Glutamine uptake assay: Ex vivo programmed Th cell subsets (1×10^6 cells) were starved in glutamine free RPMI-1640 media (Thermo Fisher Scientific, Cat #21870-076) for 15 min before incubated with L-2,3,4-[^3H] glutamine (0.5 mCi, PerkinElmer) for 10 min at room temperature. Cells were lysed in 500 μl of lysis buffer (Sigma-Aldrich, St. Louis, MO) and radioactivity was measured by liquid scintillation.

[4] = test system: B16-F10-HLA-A2+ murine melanoma; test: Adoptive T cell transfer, s.c. B16-F10-HLA-A2+ melanoma, tumor growth; type: in vivo, mouse; conditions: Th1/17 differentiated ex vivo with FK866 or Ex527 vs untreated/vehicle (FIGS. 4E, 5F)
Th1/17 cells [5] = test: Global acetylation of nuclear protein, western blot; type: cell-based, mouse; conditions: Nampt inhibitor FK866 treatment (FIG. 6A, FIG. 13A)
Protocol: Immunoblotting and Immunoprecipitation of Foxo1: For evaluation of global protein acetylation, cells were lysed using NE-PER Nuclear and Cytoplasmic Extraction Reagents (Thermo Fisher Scientific, Waltham, MA) and nuclear fraction was isolated according to the manufacturer's protocol. Equal amounts of nuclear protein (20 μg) were separated by 4%-12% SDS-PAGE and then transferred to nitrocellulose membranes. The membranes were probed with anti-Acetyl-Lysine antibody (Cell Signaling Technologies, Danvers, MA) followed by incubation with secondary antibody (HRP-conjugated goat anti-rabbit IgG at 1:3000 dilutions) for overnight at 4° C. Pre-stained molecular weight and magic markers were run in parallel to identify the molecular weight of proteins. For chemiluminescent detection, the membranes were treated with enhanced chemiluminescent reagent, and the signal was monitored using a Biorad Versadoc imaging system (Biorad, Hercules, CA). Same membrane was stripped with stripping buffer (Bioland Scientific, Paramount, CA) according to manufacturer's protocol and re-probed with antibody specific to histone H3 (Cell Signaling Technologies, Danvers, MA) as reference control.

Th1/17 cells [6] = test: qPCR gene expression in Th1/17 cells; type: cell-based, mouse; conditions: Th1/17 differentiated with FK866 10 nM or Ex527 (FIGS. 4D, 5D)
Protocol: Real-time quantitative-PCR: Total RNA was extracted from pellets of the indicated T cell subsets (2×10^6 cells) using Trizol reagent (Life technologies, Grand Island, NY). cDNA was generated from 1 μg total RNA using iScript cDNA Synthesis Kit (BioRad, Hercules, CA). SYBR Green incorporation quantitative real-time PCR was performed using a SYBR Green mix (Biorad, Hercules, CA) in the CFX96 Detection System (BioRad, Hercules, CA). Expression of different genes was quantified relative to Actb.

Th1 cells = test: Intracellular cytokine (IFNγ, IL17) flow cytometry after PMA and ionomycin; type: cell-based, mouse; conditions: Th1 subsets (FIGS. 12A and 12B)
Protocol: FIGS. 12A-12D: Loss of Sirt1 expression and NAD+ levels on Th1/17 cell phenotype and function (see FIG. 5). (A) Purified CD4^+ T cells from C57BL/6 were used to differentiate to Th1/17 cells either alone or in the presence of Ex527, a pharmacological inhibitor of Sirt1. Cells were then restimulated with PMA and ionomycin for 4 hr in presence of golgi block to stain for intracellular accumulation of cytokines IFNγ and IL17. (B) Th1 cells were cultured either in presence or absence of NAD+ inhibitor FK866 (10 nM) and intracellular staining was performed for IFNγ and IL17. Data was acquired using FACS and analysis was carried out using FlowJo software. (C-D) Purified splenic CD4^+ T cells from either C57BL/6 WT or Sirt1fl/flCD4Cre (Sirt1KO) mouse were used to ex vivo program for Th1/17 cells. RNA was prepared and quantitative PCR analysis was performed for the expression of various glycolysis (C) and glutaminolysis (D) associated genes in either WT or Sirt1KO Th1/17 cells. Data in section A-D are representative of three independent experiments.
T cell differentiation: Naïve CD4^+ T cells were purified from the total splenocytes of 6-9 weeks old WT (C57BL/6) and KO (Foxo1^fl/flLck^cre, Sirt1^fl/flCD4^cre, CD38KO) mice using CD4^+ T cell isolation kit (Miltenyi Biotec) according to manufacturer's protocol. […]

Structure (SMILES)	nuclear Foxo1 levels (Foxo1)	anti-tumor response of DON pre-treated Th1/17 cells upon ACT (B16-F10 melanoma)	viability of Th1/17 cells (Th1/17 cells [1])	NAD+ levels in Th1/17 cells (NAD+)	IFNγ+IL-17+ secreting fraction (Th1/17 cells [2]; DON 3 μM in differentiation media from day 0 (FIGS. 11E, 11F))	uptake of radio labelled glutamine (Th1/17 cells [3])	tumor control by inhibitor-treated Th1/17 cells upon adoptive transfer [4]	reduced global acetylation of Th1/17 cells (Th1/17 cells [5])	expression of stemness-associated genes (Th1/17 cells [6])	IFNγ secreting fraction (Th1 cells)	frequency of IL17+IFNγ+ population (Th1/17 cells [2]; FK866 10 nM in differentiation media from day 0 (FIG. 4C))
CCOC(=O)C1=C(N)Oc2ccc(Cl)cc2C1C(C#N)C(=O)OCC (stereo not drawn) [SC-79]	reduced nuclear Foxo1 levels	–	–	–	–	–	–	–	–	–	–
[N-]=[N+]=CC(=O)CC[C@H](N)C(=O)O [DON, 6-Diazo-5-oxo-L-norleucine]	–	significant attenuation of the anti-tumor response upon ACT	reduced by two-folds	significantly reduced NAD^+ levels	reduction in IFNγ^+IL-17^+ secreting fraction	reduced the uptake of radio labelled glutamine in a dose dependent manner	–	–	–	–	–
O=C(/C=C/c1cccnc1)NCCCCC1CCN(C(=O)c2ccccc2)CC1 [FK866]	–	–	–	depletion of NAD^+	–	–	failed to exhibit potent tumor control upon adoptive transfer	reversed to a certain extent	reduced expression of stemness-associated molecules such as Tcf7, Bcl6, and β-catenin	No significant difference	two-fold decrease in the frequency of IL17^+IFNγ^+ population
